Patent US20250241347A1, “COMPOSITIONS AND METHODS FOR TASTE MODULATION” (INTERNATIONAL FLAVORS & FRAGRANCES INC., priority 2019, published 2025)

What was measured:
[1] = Masking effect on benzoic acid, trained panel; set-up: species or system human; conditions: base benzoic acid 250 ppm in water; for Masking Intensity: panel average, scale 0-5
Description: (§1) Preparation of Test Samples: […], oroxylin A-7 glucouronide, wogonoside, baicalein, oroxylin A and wogonin were purchased commercially. S. baicalensis extract (“Extract”) and cabohydrase-treated S. baicalensis extract (“Treated Extract”) were obtained as above in Example 1.
(§2) Subsequently, all compounds and extracts were applied to different bases for evaluating their off-taste masking functions.
(§3) Testing Procedure: The masking effects on the off-tastes (bitterness, sourness, astringency, lingering and drying aftertaste, etc.) associated with various food components was evaluated by a group of 16 trained panelist. Each provided a rank of masking intensity using the intensity scales of 0 to 5, where 0 represents “no masking effect,” 1 represents “minimal masking intensity” and 5 represents “the most masking intensity.” The average of the reported making intensity is presented in the following examples.
A base solution of benzoic acid was prepared in water (250 ppm). […] The flavor profile of the benzoic acid solutions with compounds or extracts was further evaluated and is reported in the following: […]

[2] = Masking effect on citric acid, trained panel; set-up: species or system human; conditions: base citric acid 300 ppm in water; for Masking Intensity: panel average, scale 0-5
Description: as §1, §2, §3
A base solution of citric acid was prepared in water (300 ppm). […] The flavor profile of the citric acid solutions with compounds or extracts were further evaluated and is reported in the following: […]

[3] = Masking effect on sorbic acid, trained panel; set-up: species or system human; conditions: base sorbic acid 150 ppm in water; for Masking Intensity: panel average, scale 0-5
Description: as §1, §2, §3
A base solution of sorbic acid was prepared in water (150 ppm). […] The flavor profile of the sorbic acid solutions with compounds or extracts were further evaluated and is reported in the following: […]

[4] = Masking effect on Reb M, trained panel; set-up: species or system human; conditions: base Reb M 200 ppm in water, test sample 0.5 ppm; for Masking Intensity: panel average, scale 0-5
Description: as §1, §2, §3
A base solution of Reb M was prepared in water (200 ppm). […] The flavor profile of the Reb M solutions with compounds or extracts were further evaluated and is reported in the following: […]

[5] = Taste modulating activity of the individual compounds; conditions: for taste modulating activity: individual compounds, Example 1; for taste modulation effect: flavone aglycones versus corresponding flavone glycosides
Experimental: With bio-transformation, most baicalin was converted to baicalein; oroxylin A glucuronide was converted to oroxylin A; and wogonoside was converted to wogonin. The activity of the individual compounds was also analyzed for taste modulating activity.

[6] = system: healthy subjects; conditions: oral doses in the range of 100-2800 mg; cited from earlier work
[7] = Masking effect on pea protein, trained panel; set-up: species or system human; conditions: base TRUPRO pea protein 5% in water, test sample 0.5 ppm; for Masking Intensity: panel average, scale 0-5
Description: as §1, §2, §3
A base solution of TRUPRO® pea protein (Solae LLC) was prepared in water (5%). […] The flavor profile of the pea protein solutions with compounds or extracts were further evaluated and is reported in the following: […]

[8] = Masking effect on Reb A, trained panel; set-up: species or system human; conditions: base Reb A 200 ppm in water; for Masking Intensity: panel average, scale 0-5
Description: as §1, §2, §3
A base solution of Reb A was prepared in water (200 ppm). […] The flavor profile of the Reb A solutions with compounds or extracts were further evaluated and is reported in the following: […]

[9] = Masking effect on Acesulfame-K, trained panel; set-up: species or system human; conditions: base Acesulfame-K 300 ppm in water; for Masking Intensity: panel average, scale 0-5
Description: as §1, §2, §3
A base solution of Acesulfame-K was prepared in water (300 ppm). […] The flavor profile of the Acesulfame-K solutions with compounds or extracts were further evaluated and is reported in the following: […]

In the case of O=c1cc(-c2ccccc2)oc2cc(O)c(O)c(O)c12 [Baicalein, 5,6,7-trihydroxyflavone], the “Masking Intensity” value ([1]; test sample 0.5 ppm) is reported as 3, the “Masking Intensity” value ([2]; test sample 0.01 ppm) is reported as 1 and the “Flavor Profile” value ([2]; test sample 0.1 ppm) is reported as “Slightly reduced tart taste”. For the same molecule, the “Masking Intensity” value ([2]; test sample 0.1 ppm) was 2, the “Flavor Profile” value ([2]; test sample 0.5 ppm) was “Reduced tart taste” and the “Masking Intensity” value ([2]; test sample 0.5 ppm) was 3. The “Flavor Profile” value ([2]; test sample 1 ppm) was “Reduced tart taste”, the “Masking Intensity” value ([2]; test sample 1 ppm) was 4 and the “Flavor Profile” value ([2]; test sample 10 ppm) was “Reduced tart taste, very slight bitterness”. The “Masking Intensity” value ([2]; test sample 10 ppm) was 3, the “Flavor Profile” value ([2]; test sample 50 ppm) was “Reduced tart taste, noticeable bitterness” and the “Masking Intensity” value ([2]; test sample 50 ppm) was 2. For the same molecule, the “Masking Intensity” value ([3]; test sample 0.001 ppm) was 0, the “Masking Intensity” value ([3]; test sample 0.01 ppm) was 1 and the “Masking Intensity” value ([3]; test sample 0.1 ppm) was 2. The “Masking Intensity” value ([3]; test sample 0.5 ppm) was 3, the “Flavor Profile” value ([3]; test sample 1 ppm) was “Reduced astringency, sourness, and drying” and the “Masking Intensity” value ([3]; test sample 1 ppm) was 4. The “Flavor Profile” value ([3]; test sample 10 ppm) was “Reduced astringency, sourness, and drying”, the “Masking Intensity” value ([3]; test sample 10 ppm) was 4 and the “Flavor Profile” value ([3]; test sample 50 ppm) was “Reduced astringency, sourness, and drying”. For the same molecule, the “Masking Intensity” value ([3]; test sample 50 ppm) was 3, the “Flavor Profile” value [4] was “Slightly reduced bitterness and lingering” and the “Masking Intensity” value [4] was 3. The taste modulating activity [5] was “more active”, the safety and tolerability [6] was “safe and well-tolerated” and the “Flavor Profile” value [7] was “Reduced astringency and bitterness, less”. The “Masking Intensity” value [7] was 3, the “Masking Intensity” value ([8]; test sample 0.5 ppm) was 3 and the “Flavor Profile” value ([9]; test sample 0.5 ppm) was “Slightly reduced bitterness and lingering”. For the same molecule, the “Masking Intensity” value ([9]; test sample 0.5 ppm) was 2.
For O=C(O)C1OC(Oc2cc3oc(-c4ccccc4)cc(=O)c3c(O)c2O)C(O)C(O)C1O (centres unmarked) [Baicalin, 5,6-dihydroxy-7-O-glucuronide flavone, reference compound], the “Masking Intensity” value ([1]; test sample 0.5 ppm) was 1, the “Masking Intensity” value ([2]; test sample 0.5 ppm) was 1 and the “Masking Intensity” value ([3]; test sample 0.5 ppm) was 1. The “Masking Intensity” value [4] was 1, the taste modulation effect [5] was “weak taste modulation effect” and the taste modulating activity [5] was “some activity”. The “Masking Intensity” value [7] was 1, the “Masking Intensity” value ([8]; test sample 0.5 ppm) was 1 and the “Masking Intensity” value ([9]; test sample 0.5 ppm) was 1.
For COc1c(O)cc2oc(-c3ccccc3)cc(=O)c2c1O [Oroxylin A, 5,7-dihydroxy-6-methoxyflavone], the “Masking Intensity” value ([1]; test sample 0.001 ppm) was 0, the “Masking Intensity” value ([1]; test sample 0.01 ppm) was 1 and the “Masking Intensity” value ([1]; test sample 0.1 ppm) was 3. For the same molecule, the “Flavor Profile” value ([1]; test sample 0.5 ppm) was “Reduced astringency, sourness, and drying”, the “Masking Intensity” value ([1]; test sample 0.5 ppm) was 4 and the “Flavor Profile” value ([1]; test sample 1 ppm) was “Reduced astringency, sourness, and drying”. For the same molecule, the “Masking Intensity” value ([1]; test sample 1 ppm) was 5, the “Flavor Profile” value ([1]; test sample 10 ppm) was “Reduced astringency, sourness, and drying” and the “Masking Intensity” value ([1]; test sample 10 ppm) was 4. The “Flavor Profile” value ([1]; test sample 50 ppm) was “Reduced astringency, sourness, and drying”, the “Masking Intensity” value ([1]; test sample 50 ppm) was 3 and the “Flavor Profile” value ([2]; test sample 0.5 ppm) was “Reduced tart taste, more pleasant”. The “Masking Intensity” value ([2]; test sample 0.5 ppm) was 5, the “Flavor Profile” value ([3]; test sample 0.5 ppm) was “Reduced astringency, sourness, and drying” and the “Masking Intensity” value ([3]; test sample 0.5 ppm) was 4. The “Flavor Profile” value [4] was “Reduced bitterness and lingering aftertaste,”, the “Masking Intensity” value [4] was 5 and the taste modulating activity [5] was “more active”. For the same molecule, the “Flavor Profile” value [7] was “Reduced astringency and bitterness, less”, the “Masking Intensity” value [7] was 4 and the “Flavor Profile” value ([8]; test sample 0.01 ppm) was “Slightly reduced astringency, licorice flavor”. The “Masking Intensity” value ([8]; test sample 0.01 ppm) was 2, the “Masking Intensity” value ([8]; test sample 0.1 ppm) was 3 and the “Masking Intensity” value ([8]; test sample 0.5 ppm) was 5. The “Masking Intensity” value ([8]; test sample 10 ppm) was 4, the “Masking Intensity” value ([8]; test sample 50 ppm) was 2 and the “Masking Intensity” value ([9]; test sample 0.01 ppm) was 1. The “Flavor Profile” value ([9]; test sample 0.1 ppm) was “Reduced bitterness and lingering aftertaste”, the “Masking Intensity” value ([9]; test sample 0.1 ppm) was 3 and the “Flavor Profile” value ([9]; test sample 0.5 ppm) was “Reduced bitterness and lingering aftertaste,”. The “Masking Intensity” value ([9]; test sample 0.5 ppm) was 5, the “Flavor Profile” value ([9]; test sample 10 ppm) was “Reduced lingering aftertaste, very slight” and the “Masking Intensity” value ([9]; test sample 10 ppm) was 4. The “Flavor Profile” value ([9]; test sample 50 ppm) was “Reduced lingering aftertaste, noticeable” and the “Masking Intensity” value ([9]; test sample 50 ppm) was 2.
In the case of COc1c(OC2OC(C(=O)O)C(O)C(O)C2O)cc2oc(-c3ccccc3)cc(=O)c2c1O [Oroxylin A-7 glucuronide, 5,7-dihydroxy-6-methoxyflavone-7-O-β-D-glucuronopyranoside, reference compound], the “Masking Intensity” value ([1]; test sample 0.5 ppm) is reported as 1, the “Masking Intensity” value ([2]; test sample 0.5 ppm) is reported as 1 and the “Flavor Profile” value ([3]; test sample 0.5 ppm) is reported as “Slightly reduced drying aftertaste”. The “Masking Intensity” value ([3]; test sample 0.5 ppm) was 2, the “Flavor Profile” value [4] was “Slightly reduced bitterness and lingering” and the “Masking Intensity” value [4] was 2. The taste modulation effect [5] was “weak taste modulation effect”, the taste modulating activity [5] was “some activity” and the “Masking Intensity” value [7] was 1. For the same molecule, the “Flavor Profile” value ([8]; test sample 0.5 ppm) was “Slightly reduced astringency, licorice flavor”, the “Masking Intensity” value ([8]; test sample 0.5 ppm) was 1 and the “Masking Intensity” value ([9]; test sample 0.5 ppm) was 1.
For COc1c(OC2OC(C(=O)O)C(O)C(O)C2O)cc(O)c2c(=O)cc(-c3ccccc3)oc12 [Wogonoside, wogonin 7-O-β-D-glucuronide, reference compound], the “Masking Intensity” value ([1]; test sample 0.5 ppm) was 1, the “Masking Intensity” value ([2]; test sample 0.5 ppm) was 1 and the “Masking Intensity” value ([3]; test sample 0.5 ppm) was 2. The “Masking Intensity” value [4] was 1, the taste modulation effect [5] was “weak taste modulation effect” and the taste modulating activity [5] was “some activity”. For the same molecule, the “Flavor Profile” value [7] was “Slightly reduced astringency and bitterness,”, the “Masking Intensity” value [7] was 2 and the “Flavor Profile” value ([8]; test sample 0.5 ppm) was “Slightly reduced astringency, licorice flavor”. The “Masking Intensity” value ([8]; test sample 0.5 ppm) was 1 and the “Masking Intensity” value ([9]; test sample 0.5 ppm) was 1.
